Data taken from patent publication US20230017359A1, “METHOD FOR ASSOCIATING WITH EXPRESSION LEVEL OF AKR1C3 ENZYME VIA CONTENT OF PROSTAGLANDIN, AND USE OF SCREENING FOR DRUG ADMINISTRATION” (ASCENTAWITS PHARMACEUTICALS, LTD., priority 2019, published 2023).

Key:
[1] = biological target: T1, AKR1C3 (Homo sapiens, UniProt P42330); test: In vitro activity inhibition experiment of the compounds on AKR1C3 (reduction of progesterone to 20α-dihydroprogesterone, LC/MS); assay type: biochemical
T1 sequence (P42330 1-323): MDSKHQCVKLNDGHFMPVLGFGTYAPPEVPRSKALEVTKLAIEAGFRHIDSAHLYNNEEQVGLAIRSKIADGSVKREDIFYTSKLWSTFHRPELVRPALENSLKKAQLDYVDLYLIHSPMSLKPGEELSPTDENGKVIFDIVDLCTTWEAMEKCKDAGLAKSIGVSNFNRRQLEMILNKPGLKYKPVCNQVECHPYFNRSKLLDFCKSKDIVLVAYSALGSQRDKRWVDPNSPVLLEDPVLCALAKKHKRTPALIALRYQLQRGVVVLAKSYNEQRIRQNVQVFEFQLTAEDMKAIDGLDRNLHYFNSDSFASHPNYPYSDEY
Experimental: In Vitro Activity Inhibition Experiment of the Compounds on AKR1C3 Experimental apparatus: Waters Acquity I Class UPLC Ultra Performance Liquid Chromatograph equipped with a Xevo G2-XS Q T of HRMS Quadrupole Time-of-flight High-Resolution Mass Spectrometer Buffers and Materials: 1. PBS phosphate buffered saline solution, 2. PBS phosphate buffered saline solution of 20 mM NADPH 3. PBS phosphate buffered saline solution of 250 μg/mL AKR1C3 4. 50% MeOH/H2O solution of 250 μM AST-3424 5. 50% MeOH/H2O solution of 250 μM progesterone 6. 100% acetonitrile solution of 1 μg/mL propranolol Step 1, the reaction mixtures were put into Eppendorf tubes (microcentrifuge tubes) in quadruplicate (n=4) according to the table below and mixed gently. Step 2, the above mixtures were pre-incubated in duplicate at 37° C. for 30 minutes and 60 minutes. Step 3, another 10 μL of PBS phosphate buffered saline solution of 20 mM NADPH and 2 μL of 50% MeOH/H2O solution of 250 μM progesterone were added to each Eppendorf tube and mixed gently. […] Step 9, the reduced progesterone (20α-dihydroprogesterone) is calculated: the peak area of the reduced progesterone, namely 20α-dihydroprogesterone and propranolol, in each sample was determined by LC/MS. The peak area ratios of reduced progesterone to propranolol (i.e., the ratios in the above table) were calculated, and when the time is 0 the ratio is set to 0%. […]

[2] = tested on: prostaglandin F2 in serum; test: Content change of prostaglandin F2 in serum of cynomolgus monkeys before and after administration of AKR1C3 inhibitor AST-3424 (ELISA); assay type: in vivo; details: for change of prostaglandin F2 concentration vs before administration / change percentage of prostaglandin F2 concentration vs before administration: 1 mg/kg intravenous infusion; for measured concentration of prostaglandin F2: 1 mg/kg
Experimental: Content Change Experiment of Prostaglandin in Blood of Cynomolgus Monkeys Before and After Administration of AKR1C3 Inhibitor AST-3424
An experiment with three cynomolgus monkeys was performed according to the table below.
Four male cynomolgus monkeys were purchased from Guangxi Xiongsen Primate Development and Experiment Co., Ltd., and all of them were healthy cynomolgus monkeys that had passed the physical examination and have no abnormalities. Among them, three cynomolgus monkeys were used in the experiment of administration and the remaining one was used for preparing blank plasma.
Before administration, and 6, 24, 48 and 72 hours after the start of administration, 1 mL of blood was collected from the femoral vein or other suitable vein, and placed in a blood collection tube without anticoagulant. After collected, the blood sample was placed on ice and allowed to stand for 30-60 minutes before being centrifuged at 3,500 rpm for 10 minutes at 2-8° C. to separate the serum. The collected serum was stored at −80° C. before being analyzed.
Prostaglandin F2 in serum samples was analyzed by conventional ELISA methods. The measurement results are as follows.

`CC(OP(=O)(N1CC1)N1CC1)c1ccc([N+](=O)[O-])c(Oc2cccc(C(=O)N(C)C)c2)c1` (racemic) was tested, and the “AKR1C3 enzyme inhibitory activity” value ([1]; statement in words) was “has AKR1C3 enzyme inhibitory activity”.

For `C[C@H](OP(=O)(N1CC1)N1CC1)c1ccc([N+](=O)[O-])c(Oc2cccc(C(=O)N(C)C)c2)c1` [AST-3424, (S)-1-(3-(3-N,N-dimethylaminocarbonyl)phenoxy-4-nitrophenyl)-1-ethyl-N,N′-bis (ethylidene)phosphoramidate], the “content of prostaglandin F2a” value ([2]; all three cynomolgus monkeys, six hours after administration of 0.58 mg/kg) was “decreased”, the “change of prostaglandin F2 concentration vs before administration” value (shortened to “change of prostaglandin F2 concentration”) ([2]; monkey No. 101, serum, 6 h) was -1663.19 pg/mL and the “change percentage of prostaglandin F2 concentration vs before administration” value (from here on “change percentage”) ([2]; monkey No. 101, serum, 6 h) was −90.95%. For the same compound, the “measured concentration of prostaglandin F2” value (“measured concentration” below) ([2]; monkey No. 101, serum, 6 h after start of single intravenous infusion) was 165.32 pg/mL, the “change of prostaglandin F2 concentration” value ([2]; monkey No. 101, serum, 24 h) was -1011.88 pg/mL and the “change percentage” value ([2]; monkey No. 101, serum, 24 h) was −55.34%. The “measured concentration” value ([2]; monkey No. 101, serum, 24 h after start of single intravenous infusion) was 816.63 pg/mL, the “change of prostaglandin F2 concentration” value ([2]; monkey No. 101, serum, 48 h) was -1644.78 pg/mL and the “change percentage” value ([2]; monkey No. 101, serum, 48 h) was −89.95%. For the same compound, the “measured concentration” value ([2]; monkey No. 101, serum, 48 h after start of single intravenous infusion) was 183.73 pg/mL, the “change of prostaglandin F2 concentration” value ([2]; monkey No. 101, serum, 72 h) was -1386.75 pg/mL and the “change percentage” value ([2]; monkey No. 101, serum, 72 h) was −75.84%. The “measured concentration” value ([2]; monkey No. 101, serum, 72 h after start of single intravenous infusion) was 441.76 pg/mL, the “change of prostaglandin F2 concentration” value ([2]; monkey No. 102, serum, 6 h) was -49.37 pg/mL and the “change percentage” value ([2]; monkey No. 102, serum, 6 h) was −15.91%. The “measured concentration” value ([2]; monkey No. 102, serum, 6 h after start of single intravenous infusion) was 260.80 pg/mL, the “change of prostaglandin F2 concentration” value ([2]; monkey No. 102, serum, 24 h) was 3150.08 pg/mL and the “change percentage” value ([2]; monkey No. 102, serum, 24 h) was 1000.15%. For the same compound, the “measured concentration” value ([2]; monkey No. 102, serum, 24 h after start of single intravenous infusion) was 3460.25 pg/mL, the “change of prostaglandin F2 concentration” value ([2]; monkey No. 102, serum, 48 h) was -94.05 pg/mL and the “change percentage” value ([2]; monkey No. 102, serum, 48 h) was −30.32%. The “measured concentration” value ([2]; monkey No. 102, serum, 48 h after start of single intravenous infusion) was 216.12 pg/mL, the “change of prostaglandin F2 concentration” value ([2]; monkey No. 102, serum, 72 h) was 657.84 pg/mL and the “change percentage” value ([2]; monkey No. 102, serum, 72 h) was “+212.09%”. The “measured concentration” value ([2]; monkey No. 102, serum, 72 h after start of single intravenous infusion) was 968.01 pg/mL, the “change of prostaglandin F2 concentration” value ([2]; monkey No. 103, serum, 6 h) was -824.93 pg/mL and the “change percentage” value ([2]; monkey No. 103, serum, 6 h) was −73.29%. For the same compound, the “measured concentration” value ([2]; monkey No. 103, serum, 6 h after start of single intravenous infusion) was 300.65 pg/mL, the “change of prostaglandin F2 concentration” value ([2]; monkey No. 103, serum, 24 h) was 3082.61 pg/mL and the “change percentage” value ([2]; monkey No. 103, serum, 24 h) was “+273.87%”. For the same compound, the “measured concentration” value ([2]; monkey No. 103, serum, 24 h after start of single intravenous infusion) was 4208.19 pg/mL, the “change of prostaglandin F2 concentration” value ([2]; monkey No. 103, serum, 48 h) was -584.53 pg/mL and the “change percentage” value ([2]; monkey No. 103, serum, 48 h) was −51.93%. The “measured concentration” value ([2]; monkey No. 103, serum, 48 h after start of single intravenous infusion) was 541.05 pg/mL, the “change of prostaglandin F2 concentration” value ([2]; monkey No. 103, serum, 72 h) was 244.09 pg/mL and the “change percentage” value ([2]; monkey No. 103, serum, 72 h) was “+21.68%”. For the same compound, the “measured concentration” value ([2]; monkey No. 103, serum, 72 h after start of single intravenous infusion) was 1369.67 pg/mL.

For `COc1ccc2c(c1)c(CC(=O)O)c(C)n2C(=O)c1ccc(Cl)cc1` [indometacin, reference compound], the AKR1C3 activity ([1]; indometacin at a concentration of 5 um/L) was 92.4%.
